The subject of data set [1] is bovine aortic endothelial BAE-2 cells. Kind of data set: Intracellular ascorbic acid cumulative amount in BAE-2 cells (Example 2). The conditions noted are these: 5 μM in culturing medium, cultured 20 hours. In kind it is cell-based. How it is done: About 6×10^5 bovine aortic endothelial BAE-2 cells (available from Hiroshima Prefecture University) were sowed on a 60 mmφ plate and cultured in a minimum essential culturing medium containing 20% dialyzed bovine fetus serum (available from Moregate) for 2 hours. After displacing with the same culturing medium containing 5 μM (in the case of magnesium ascorbic acid-2-phosphate, 50 μM) of ascorbic acid or a derivative thereof, the cells were further cultured for 20 hours.

The test system of data set [2] is spontaneous breast cancer rat cells (SST-2). In words: Lung metastasis of implanted SST-2 cells in SHR rats (Example 3). In kind it is in vivo. Particulars: 35 days after implantation; for Number of Metastasis Colonies (average), Peroral Administration: 1 mg/rat perorally from day of implantation to day 34; for Number of Metastasis Colonies (average), Subcutaneous Injection: 1 mg/rat subcutaneous injection from day of implantation to day 34. On the procedure: 1×100,000 spontaneous breast cancer rat cells (SST-2) were subcutaneously implanted into the back of a rat (SHR rat) (5 rats per group) suffering from spontaneous hypertension. After 35 days, the rats were sacrificed, and the lung weight and the number of colonies formed were measured to examine the degree of metastasis of SST-2 to the lung. The compounds shown in Tables 3 and 4 each was administered perorally or through subcutaneous injection in a dose of 1 mg/rat over the period from the day of implantation to 34 days after implantation. The number of colonies formed was compared with that in the control group not subjected to any treatment, to examine metastasis to the lung.

For data set [3] the test system is unchanged. In words: Lung metastasis of SST-2 in SHR rats, ascorbic acid derivative combined with known anticancer agent (Example 4). Format: in vivo. The conditions noted are these: rat, in vivo. On the procedure:
1×100,000 spontaneous breast cancer rat cells (SST-2) were subcutaneously implanted into the back of a rat (SHR rat) (5 rats per group) suffering from spontaneous hypertension. After 35 days, the rats were sacrificed, and the number of colonies formed were measured to examine the degree of metastasis of SST-2 to the lung.
The ascorbic acid derivatives used were L-ascorbic acid-2-phosphate-6-palmitate, L-ascorbic acid-6-benzoate (reference compound) and magnesium L-ascorbic acid-2-phosphate.
Each of the groups treated with an ascorbic acid derivative was subjected to a test of administering the ascorbic acid derivative alone and to a test of administering the ascorbic acid derivative in combination with a known anticancer agent as shown in Table 4. Furthermore, tests of administering the anticancer agents alone were conducted. Over the period of from 7 days prior to implantation to 34 days after the implantation, the ascorbic acid derivative was injected through a vein in the tail region at a dose of 1 mg/1 day/rat. Each of the known anticancer agents was perorally administered in a minimum dose by reference to the concentration for a single use case described in the publication, Tyakuhin Yoran (Medical Product Handbook), 4th Edition, pp. 1474-1509, Yakugyo Jiho-Sha (1989), and the number of colonies formed after metastasis was compared.

For data set [4] the test system is unchanged. The description is as above. Particulars: rat, in vivo. Format: in vivo. The source holds these as a separate data set.

This note sets out measurements from patent US20020010210A1, “PHARMACEUTICAL PREPARATION AND METHOD FOR TREATING CANCER” (priority 1997, published 2002).

On to `O=C1O[C@H]([C@@H](O)CO)C(O)=C1OC1O[C@H](CO)[C@@H](O)[C@H](O)[C@H]1O` (stereo partly drawn) [2-O-D-Glucopyranosil-L-ascorbic acid], for which the “Intracellular Cumulative Amount” value in data set [1] is <0.0003 Pmole/cell. In data set [2], the “Number of Metastasis Colonies (average), Peroral Administration” value (from here on “Number … Peroral Administration”) was found to be 87.2 and the “Number of Metastasis Colonies (average), Subcutaneous Injection” value (“Number … Subcutaneous Injection” for short) was determined as 90.6.
For `CC(CCC(C(=O)OC1=C(O)C(=O)O[C@@H]1[C@@H]1COC(c2ccccc2)O1)C(C)CC(C)(C)C)CC(C)(C)C` (stereo partly drawn) [5,6-O-Benzylidene-3-O-[5,7,7-trimethyl-2-(1,3,3-timethylbutyl)]octanoylascorbic acid], the “Intracellular Cumulative Amount” value in data set [1] stood at 0.0008 Pmole/cell. Also, in data set [2], the “Number … Peroral Administration” value worked out at 87.4 and the “Number … Subcutaneous Injection” value is given as 89.6.
With `CC(C)(C)C(=O)OC[C@H](O)[C@H]1OC(=O)C(O)=C1OP(=O)(O)O` [6-O-Pivaloyl-L-ascorbic acid-3-phosphate], in data set [2], the “Number … Peroral Administration” value is 89.6 and the “Number … Subcutaneous Injection” value came out at 86.2.
On to `CCCCC/C=C\C/C=C\C/C=C\C/C=C\CCCC(=O)OC[C@H](O)[C@H]1OC(=O)C(OP(=O)(O)O)=C1O` [L-Ascorbic acid 2-phosphate-6-arachidonate], for which the “Intracellular Cumulative Amount” value in data set [1] stood at 0.0068 Pmole/cell. Further, in data set [2], the “Number … Peroral Administration” value turned out to be 31.4 and the “Number … Subcutaneous Injection” value is recorded as 1.2.
For `O=C1O[C@H]([C@@H](O)COC(=O)c2ccccc2)C(O)=C1OP(=O)(O)O` [L-Ascorbic acid 2-phosphate-6-benzoate] the same measures were 0.0025 Pmole/cell, 80.0 and 64.4.
For the compound `CCCCCCCCCCCCCCCC(=O)OC[C@H](O)[C@H]1OC(=O)C(OC(=O)CCCCCCCCCCCCCCC)=C1O` [L-Ascorbic acid-2,6-dipalmitate], in data set [2], the “Number … Peroral Administration” value is on record as 89.8 and the “Number … Subcutaneous Injection” value is given as 86.6.
The corresponding values for `CCCCCCCCCCCCCCCC(=O)OC[C@H](O)[C@H]1OC(=O)C(O)=C1O` [L-Ascorbic acid-6-palmitate] are 85.4 and 83.0.
The corresponding values for `O=C1O[C@H]([C@@H](O)CO)C(O)=C1O` [L-Ascorbic acid] are 90.8 and 88.8.
For `O=C1O[C@H]([C@@H](O)CO)C(O)=C1OP(=O)([O-])[O-].[Mg+2]` [Magnesium L-ascorbic acid-2-phosphate] the same measures were 89.4 and 86.8.
Regarding `O=C1O[C@H]([C@@H](O)CO)C(O)=C1OS(=O)(=O)[O-].[Na+]` [Sodium L-ascorbic acid-2-sulfate], in data set [2], the “Number … Peroral Administration” value worked out at 86.2 and the “Number … Subcutaneous Injection” value turned out to be 85.4.
As for pleomycin hydrochloride, the “Cancer metastasis inhibitory effect of combination with L-Ascorbic Acid-2-Phosphate-6-Palmitate versus each agent alone” value in data set [3] is recorded as “+”. Besides, in data set [4], the “Cancer metastasis inhibitory effect of combination with L-Ascorbic Acid-2-Phosphate-6-Benzoate versus each agent alone” value is on record as “+” and the “Cancer metastasis inhibitory effect of combination with L-Ascorbic Acid-6-Palmitate versus each agent alone” value is given as “−”.
For the compound protamine, the “Cancer metastasis inhibitory effect of combination with L-Ascorbic Acid-2-Phosphate-6-Palmitate versus each agent alone” value in data set [3] was “+”. Besides, in data set [4], the “Cancer metastasis inhibitory effect of combination with L-Ascorbic Acid-2-Phosphate-6-Benzoate versus each agent alone” value is given as “+” and the “Cancer metastasis inhibitory effect of combination with L-Ascorbic Acid-6-Palmitate versus each agent alone” value is recorded as “−”.
On to vebromycin sulfate, for which the “Cancer metastasis inhibitory effect of combination with L-Ascorbic Acid-2-Phosphate-6-Palmitate versus each agent alone” value in data set [3] is on record as “+”. Further, in data set [4], the “Cancer metastasis inhibitory effect of combination with L-Ascorbic Acid-2-Phosphate-6-Benzoate versus each agent alone” value is “+” and the “Cancer metastasis inhibitory effect of combination with L-Ascorbic Acid-6-Palmitate versus each agent alone” value is “−”.
